Here are results for 29 compounds from patent US10647713B2 (Nimbus Lakshmi, Inc., priority 2016, dated 2020).

SMILES strings stand for the structures. Where only a bound is given, the exact number is not on record here.

Chain of human TYK2 (JH2domain-pseudokinase) (P29597 556-888): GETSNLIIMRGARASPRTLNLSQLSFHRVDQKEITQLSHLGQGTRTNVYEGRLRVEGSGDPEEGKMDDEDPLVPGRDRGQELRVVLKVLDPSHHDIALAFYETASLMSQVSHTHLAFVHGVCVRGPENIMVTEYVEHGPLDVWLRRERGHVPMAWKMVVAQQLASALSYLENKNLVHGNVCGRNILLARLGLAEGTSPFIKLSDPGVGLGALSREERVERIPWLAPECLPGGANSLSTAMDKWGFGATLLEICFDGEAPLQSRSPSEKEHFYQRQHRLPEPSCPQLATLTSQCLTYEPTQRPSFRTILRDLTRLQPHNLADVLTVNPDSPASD

The target of this assay is human TYK2 (JH2domain-pseudokinase) (Homo sapiens (Human), UniProt P29597). Description: TYK2 JH2 Domain Binding Assay (KINOMEscan, DiscoveRx). As to conditions: 11-point dilution, duplicate. In outline:
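Kd from duplicate 11-point 3-fold dilutions starting at 30,000 nM, fitted by Hill equation with slope fixed at −1. Compounds (final 0.9% DMSO) displace DNA-tagged HEK293-expressed TYK2 JH2 fusion (<0.1 nM) from ligand-coated beads over 1 h at room temperature; eluted kinase read by qPCR.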
For `Cc1nc2c(Nc3ccccc3N(C)S(C)(=O)=O)cc(Nc3ccc(C)c(C#N)n3)nc2[nH]1` [I-125, N-(2-((5-((6-cyano-5-methylpyridin-2-yl)amino)-2-methyl-3H-imidazo[4,5-b]pyridin-7-yl)amino)phenyl)-N-methylmethanesulfonamide], the dissociation constant (Kd) lay in the range of 0.1 to 0.5 nM. `Cc1nc2c(Nc3ccc(Cl)cc3S(C)(=O)=O)cc(NC(=O)C3CC3)nc2[nH]1` [I-126, N-(7-((4-chloro-2-(methylsulfonyl)phenyl)amino)-2-methyl-3H-imidazo[4,5-b]pyridin-5-yl)cyclopropanecarboxamide] displayed an equilibrium dissociation constant (Kd) of 0.1 to 0.5 nM. Under `Cc1nc2c(Nc3ccccc3N(C)S(C)(=O)=O)cc(Nc3cccc(C(F)(F)F)n3)nc2[nH]1` [I-127, N-methyl-N-(2-((2-methyl-5-((6-(trifluoromethyl)pyridin-2-yl)amino)-3H-imidazo[4,5-b]pyridin-7-yl)amino)phenyl)methanesulfonamide] stands 0.1 to 0.5 nM. Under `COc1c(Nc2cc(NC(=O)C3CC3)nc3[nH]c(C)nc23)cccc1-n1cnc(C)n1` [I-128, N-(7-((2-methoxy-3-(3-methyl-1H-1,2,4-triazol-1-yl)phenyl)amino)-2-methyl-3H-imidazo[4,5-b]pyridin-5-yl)cyclopropanecarboxamide] stands 1 to 10 nM; under `Cc1nc2c(Nc3ccc(N4CCC4)cc3N(C)S(C)(=O)=O)cc(NC(=O)C3CC3)nc2[nH]1` [I-129, N-(7-((4-(azetidin-1-yl)-2-(N-methylmethylsulfonamido)phenyl)amino)-2-methyl-3H-imidazo[4,5-b]pyridin-5-yl)cyclopropanecarboxamide], 1 to 10 nM. Under `Cc1nc2c(Nc3ccc(Cl)cc3N(C)S(C)(=O)=O)cc(Nc3cnc(C)c(C)n3)nc2[nH]1` [I-130, N-(5-chloro-2-((5-((5,6-dimethylpyrazin-2-yl)amino)-2-methyl-3H-imidazo[4,5-b]pyridin-7-yl)amino)phenyl)-N-methylmethanesulfonamide] stands 0.5 to 1 nM; under `Cc1ccc(Nc2cc(NC(=O)C3CC3)nc3[nH]c(C)nc23)c(N(C)S(C)(=O)=O)c1` [I-131, N-(2-methyl-7-((4-methyl-2-(N-methylmethylsulfonamido)phenyl)amino)-3H-imidazo[4,5-b]pyridin-5-yl)cyclopropanecarboxamide], 0.5 to 1 nM; under `Cc1ccc(Nc2cc(Nc3cnc(C)c(C)n3)nc3[nH]c(C)nc23)c(N(C)S(C)(=O)=O)c1` [I-132, N-(2-((5-((5,6-dimethylpyrazin-2-yl)amino)-2-methyl-3H-imidazo[4,5-b]pyridin-7-yl)amino)-5-methylphenyl)-N-methylmethanesulfonamide], 0.1 to 0.5 nM. Compound `COc1c(Nc2cc(NC(=O)C3CC3)nc3[nH]c(C)nc23)cccc1-c1nn(C)nc1C` [I-133, N-(7-((3-(2,5-dimethyl-2H-1,2,3-triazol-4-yl)-2-methoxyphenyl)amino)-2-methyl-3H-imidazo[4,5-b]pyridin-5-yl)cyclopropanecarboxamide] registered a Kd of 1 to 10 nM.

Compound `Cc1nc2c(Nc3ccc(Cl)cc3N(C)S(C)(=O)=O)cc(Nc3cccc(C#N)n3)nc2[nH]1` [I-134, N-(5-chloro-2-((5-((6-cyanopyridin-2-yl)amino)-2-methyl-3H-imidazo[4,5-b]pyridin-7-yl)amino)phenyl)-N-methylmethanesulfonamide] displayed a Kd of 0.1 to 0.5 nM.

With `Cc1cnn(-c2ccc(Nc3cc(NC(=O)C4CC4)nc4[nH]c(C(F)F)nc34)c(N(C)S(C)(=O)=O)c2)c1` [I-135, N-(2-(difluoromethyl)-7-((4-(4-methyl-1H-pyrazol-1-yl)-2-(N-methylmethylsulfonamido)phenyl)amino)-3-imidazo[4,5-b]pyridin-5-yl)cyclopropanecarboxamide], the Kd lay in the range of 0.1 to 0.5 nM.

Turning to `COc1ccccc1Nc1cc(Nc2ccc(N3CCC4(CCOCC4)CC3)cn2)nc2[nH]c(C(F)F)nc12` [I-136, N5-(5-(3-oxa-9-azaspiro[5.5]undecan-9-yl)pyridin-2-yl)-2-(difluoromethyl)-N7-(2-methoxyphenyl)-3H-imidazo[4,5-b]pyridine-5,7-diamine], the dissociation constant Kd was above 10 nM. The figure for `COc1c(Nc2cc(Nc3cnc(C(C)(C)OC)c(C)n3)nc3[nH]c(C)nc23)cccc1-c1nnn(C)n1` [I-138, N7-(2-methoxy-3-(2-methyl-2H-tetrazol-5-yl)phenyl)-N5-(5-(2-methoxypropan-2-yl)-6-methylpyrazin-2-yl)-2-methyl-3H-imidazo[4,5-b]pyridine-5,7-diamines] is 1 to 10 nM; for `Cc1ccn(-c2ccc(Nc3cc(NC(=O)C4CC4)nc4[nH]c(C(F)F)nc34)c(N(C)S(C)(=O)=O)c2)n1` [I-139, N-(2-(difluoromethyl)-7-((4-(3-methyl-1H-pyrazol-1-yl)-2-(N-methylmethylsulfonamido)phenyl)amino)-3H-imidazo[4,5-b]pyridin-5-yl)cyclopropanecarboxamide] it is 0.5 to 1 nM; for `COc1c(Nc2cc(NC(=O)C3CC3)nc3[nH]c(C(F)F)nc23)cccc1C(=O)O` [I-140, 3-((5-(cyclopropanecarboxamido)-2-(difluoromethyl)-3H-imidazo[4,5-b]pyridin-7-yl)amino)-2-methoxybenzoic acid] it is 1 to 10 nM.

Regarding `COc1c(Nc2cc(NC(=O)C3CC3)nc3[nH]c(C)nc23)cccc1C(=O)O` [I-141, 3-((5-(cyclopropanecarboxamido)-2-methyl-3H-imidazo[4,5-b]pyridin-7-yl)amino)-2-methoxybenzoic acid], the equilibrium dissociation constant (Kd) is above 10 nM.

`COc1cc(-c2cncn2C)ccc1Nc1cc(NC(=O)C2CC2)nc2[nH]c(C(F)F)nc12` [I-142, N-(2-(difluoromethyl)-7-((2-methoxy-4-(1-methyl-1H-imidazol-5-yl)phenyl)amino)-3H-imidazo[4,5-b]pyridin-5-yl)cyclopropanecarboxamide] displayed a Kd of 1 to 10 nM. Under `COc1cc(-c2cncn2C)ccc1Nc1cc(Nc2cccc(C#N)n2)nc2[nH]c(C(F)F)nc12` [I-143, 6-((2-(difluoromethyl)-7-((2-methoxy-4-(1-methyl-1H-imidazol-5-yl)phenyl)amino)-3H-imidazo[4,5-b]pyridin-5-yl)amino)picolinonitril] stands 1 to 10 nM. Under `COc1cc(-c2cncn2C)ccc1Nc1cc(Nc2cnc(C)c(C)n2)nc2[nH]c(C(F)F)nc12` [I-144, 2-(difluoromethyl)-N5-(5,6-dimethylpyrazin-2-yl)-N7-(2-methoxy-4-(1-methyl-1H-imidazol-5-yl)phenyl)-3H-imidazo[4,5-b]pyridine-5,7-diamine] stands above 10 nM; under `Cc1cnn(-c2ccc(Nc3cc(NC(=O)C4CC4)nc4[nH]c(C)nc34)c(N(C)S(C)(=O)=O)c2)c1` [I-145, N-(2-methyl-7-((4-(4-methyl-1H-pyrazol-1-yl)-2-(N-methylmethylsulfonamido)phenyl)amino)-3H-imidazo[4,5-b]pyridin-5-yl)cyclopropanecarboxamide], 0.5 to 1 nM. `COc1c(Nc2cc(NC(=O)C3CC3)nc3[nH]c(C(F)F)nc23)cccc1-c1c(C)nnn1C` [I-146, N-(2-(difluoromethyl)-7-((3-(1,4-dimethyl-1H-1,2,3-triazol-5-yl)-2-methoxyphenyl)amino)-3H-imidazo[4,5-b]pyridin-5-yl)cyclopropanecarboxamide] gave a dissociation constant (Kd) of 1 to 10 nM. In turn, `CN(c1cc(-c2cncn2C)ccc1Nc1cc(NC(=O)C2CC2)nc2[nH]c(C(F)F)nc12)S(C)(=O)=O` [I-147, N-(2-(difluoromethyl)-7-((4-(1-methyl-1H-imidazol-5-yl)-2-(N-methylmethylsulfonamido)phenyl)amino)-3H-imidazo[4,5-b]pyridin-5-yl)cyclopropanecarboxamide] showed a dissociation constant (Kd) below 0.1 nM. Under `Cn1ccc(-c2ccc(Nc3cc(NC(=O)C4CC4)nc4[nH]c(C(F)F)nc34)c(S(C)(=O)=O)c2)n1` [I-148, N-(2-(difluoromethyl)-7-((4-(1-methyl-1H-pyrazol-3-yl)-2-(methylsulfonyl)phenyl)amino)-3H-imidazo[4,5-b]pyridin-5-yl)cyclopropanecarboxamide] stands 0.1 to 0.5 nM; under `COc1c(Nc2cc(NC(=O)C3CC3)nc3[nH]c(C)nc23)cccc1-n1nc(C)nc1C` [I-149, N-(7-((3-(3,5-dimethyl-1H-1,2,4-triazol-1-yl)-2-methoxyphenyl)amino)-2-methyl-3H-imidazo[4,5-b]pyridin-5-yl)cyclopropanecarboxamide], above 10 nM; under `COCc1ccc(Nc2cc(NC(=O)C3CC3)nc3[nH]c(C)nc23)c(N(C)S(C)(=O)=O)c1` [I-150, N-(7-((4-(methoxymethyl)-2-(N-methylmethylsulfonamido)phenyl)amino)-2-methyl-3H-imidazo[4,5-b]pyridin-5-yl)cyclopropanecarboxamide], 0.1 to 0.5 nM. With `COc1cc(-c2cncn2C)ccc1Nc1cc(NC(=O)C2CC2)nc2[nH]c(C)nc12` [I-151, N-(7-((2-methoxy-4-(1-methyl-1H-imidazol-5-yl)phenyl)amino)-2-methyl-3H-imidazo[4,5-b]pyridin-5-yl)cyclopropanecarboxamide], the equilibrium dissociation constant (Kd) was in the range of 1 to 10 nM. For `COc1cc(-c2cncn2C)ccc1Nc1cc(Nc2cnc(C)c(C)n2)nc2[nH]c(C)nc12` [I-152, N5-(5,6-dimethylpyrazin-2-yl)-N7-(2-methoxy-4-(1-methyl-1H-imidazol-5-yl)phenyl)-2-methyl-3H-imidazo[4,5-b]pyridine-5,7-diamine], the Kd lay within 1 to 10 nM.

`Cc1nc2c(Nc3ccc(-c4cncn4C)cc3N(C)S(C)(=O)=O)cc(NC(=O)C3CC3)nc2[nH]1` [I-153, N-(2-methyl-7-((4-(1-methyl-1H-imidazol-5-yl)-2-(N-methylmethylsulfonamido)phenyl)amino)-3H-imidazo[4,5-b]pyridin-5-yl)cyclopropanecarboxamide] gave a Kd of 0.1 to 0.5 nM.

Take `Cc1ncc(Nc2cc(Nc3ccc(-c4cncn4C)cc3N(C)S(C)(=O)=O)c3nc(C(F)F)[nH]c3n2)nc1C` [I-154, N-(2-((2-(difluoromethyl)-5-((5,6-dimethylpyrazin-2-yl)amino)-3H-imidazo[4,5-b]pyridin-7-yl)amino)-5-(1-methyl-1H-imidazol-5-yl)phenyl)-N-methylmethanesulfonamide]: the equilibrium dissociation constant (Kd) was in the range of 0.1 to 0.5 nM.
